The test deals with scopolamine-induced retention deficit in male Sprague Dawley rats. Put plainly: Scopolamine-induced memory deficit in the spatial water maze task. In kind it is in vivo, rat. The settings on record: IV 5 minutes prior to scopolamine 0.125 mg/kg IP; sub-efficacious doses; retention tested one day after training; Fisher LSD p<0.05 vs PEG/scopolamine. As to the method:
Subjects: Animals used in these studies were naive male Sprague Dawley rats (SASCO St. Louis) weighing between 200-250 grams. Animals were housed in groups of three in a temperature (22° C.[…]) and humidity (40-70% relative humidity) controlled vivarium with a 12-hour light/dark cycle. Animals had ad lib access to food and water.
Drugs: Aricept and said compound of Formula I were each dissolved in 50% polyethylene glycol (PEG), and scopolamine HCI (Sigma) was dissolved in 0.9% saline. Aricept and said compound of Formula I (alone or in combination) or 50% PEG was administered intravenously (IV) 5 minutes prior to scopolamine (0.125 mg/kg) or saline given intraperitoneally (IP). Training commenced 15 minutes after the IP injection. […]
Procedure: An animal was initially placed on the platform in the tank for 20 seconds. […] For each trial during acquisition and retention, a computerized video tracking system recorded the latency (sec) to reach the submerged platform the total distance traveled (m) in the water maze, the number of zone (quadrant) transitions made, and the swim speed of the animal.
Data Analysis: A one-way ANOVA was conducted on the latency to locate the platform during retention testing. Tests for significant differences between individual treatment groups were assessed using a Fisher LSD test (p<0.05).

With `COc1cc2c(cc1OC)C(=O)C(CC1CCN(Cc3ccccc3)CC1)C2` (stereo not shown) [Aricept, donepezil], the “attenuation of scopolamine-induced retention deficit (latency to locate the platform during retention testing)” value is recorded as “did not significantly attenuate”.

For the origin of these results see patent US20020151591A1, “Combination use of acetylcholinesterase inhibitors and GABAa inverse agonists for the treatment of cognitive disorders” (priority 2000, published 2002).
